Test results: publication PMC12384008, “Assessment of Biological Activity of Low Molecular Weight 1,4-Benzoquinone Derivatives” (Biomolecules, 2025)
Where “and” joins values, the source holds several entries; their conditions need not be identical. Equal values may be shown once. Read-outs that look alike come from different tables or passages of the source.

Tests used:
[1] = target: T1, human recombinant β-secretase (BACE1) (Homo sapiens, UniProt P56817); test: Inhibition of BACE1 (spectrofluorimetric method); assay type: biochemical; settings: 50 μM compound; three independent measurements ± SD
T1 construct: purchased Sigma Aldrich, St. Louis, MO, USA S4195
T1 sequence (P56817 46-501): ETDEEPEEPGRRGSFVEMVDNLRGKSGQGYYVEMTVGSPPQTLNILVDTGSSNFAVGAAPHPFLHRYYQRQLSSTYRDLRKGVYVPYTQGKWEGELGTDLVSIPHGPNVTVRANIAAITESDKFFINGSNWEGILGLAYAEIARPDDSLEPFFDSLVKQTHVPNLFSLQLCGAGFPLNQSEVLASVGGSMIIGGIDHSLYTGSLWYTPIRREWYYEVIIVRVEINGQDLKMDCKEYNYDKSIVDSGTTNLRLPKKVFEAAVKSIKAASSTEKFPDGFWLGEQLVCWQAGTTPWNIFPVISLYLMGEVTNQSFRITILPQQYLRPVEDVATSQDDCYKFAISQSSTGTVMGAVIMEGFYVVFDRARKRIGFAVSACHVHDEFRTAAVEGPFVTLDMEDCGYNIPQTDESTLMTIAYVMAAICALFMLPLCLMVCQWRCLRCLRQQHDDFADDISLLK
Protocol: For the determination of BACE1 activity, a human recombinant β-secretase (BACE1) (cat. no. S4195, Sigma Aldrich, St. Louis, MO, USA) as the source of the enzyme and 7-Methoxycoumarin-4-acetyl-[Asn670, Leu671]-Amyloid β/A4 Precursor Protein 770 Fragment 667–676(2,4-dinitrophenyl)Lys-Arg-Arg amide (cat. no. A1472, Sigma Aldrich, St. Louis, MO, USA) as the substrate were used. All measurements were conducted in 50 mM sodium acetate buffer (pH 4.5) with 0.005% Triton X-100. Commercially available β-secretase Inhibitor III (cat. no. 565780, EMD Millipore Corp., Billerica, MA, USA) was used as positive control.
BACE1 activity was determined using a slightly modified spectrofluorimetric method, as described in our previous work. Stock solutions of tested compounds were prepared in DMSO, and further dilutions were carried out in 50 mM sodium acetate buffer (pH 4.5) containing 0.005% Triton X-100. […] To eliminate any potential influence of benzoquinone and/or buffer on the intensity of fluorescence signal, non-enzymatic (buffer, substrate, and benzoquinones) and blank reactions (buffer and substrate only) were also measured and subtracted from inhibition and control reaction, respectively. As a positive control of BACE1 inhibition, commercially available β-secretase Inhibitor III (EMD Millipore Corp., Billerica, MA, USA) was used (5 µM), which inhibited over 90% of BACE1 activity, corresponding to the manufacturer’s data. All fluorescence signal readouts were recorded at room temperature (25 °C) at zero and two hours after incubation at 37 °C, on a plate reader (SpectraMax iD3, Molecular Devices, LLC, San Jose, CA, USA) with excitation at 320 nm and emission at 405 nm.

[2] = target: T2, purified native human BChE (Homo sapiens, UniProt P06276); test: biochemical; assay type: biochemical; settings: for SI = Ki(AChE)/Ki(BChE): selectivity index
T2 construct: purified native human BChE; tissue gift of Dr Florian Nachon (IRBA, Brétigny-sur-Orge, France)
T2 sequence (P06276 29-602): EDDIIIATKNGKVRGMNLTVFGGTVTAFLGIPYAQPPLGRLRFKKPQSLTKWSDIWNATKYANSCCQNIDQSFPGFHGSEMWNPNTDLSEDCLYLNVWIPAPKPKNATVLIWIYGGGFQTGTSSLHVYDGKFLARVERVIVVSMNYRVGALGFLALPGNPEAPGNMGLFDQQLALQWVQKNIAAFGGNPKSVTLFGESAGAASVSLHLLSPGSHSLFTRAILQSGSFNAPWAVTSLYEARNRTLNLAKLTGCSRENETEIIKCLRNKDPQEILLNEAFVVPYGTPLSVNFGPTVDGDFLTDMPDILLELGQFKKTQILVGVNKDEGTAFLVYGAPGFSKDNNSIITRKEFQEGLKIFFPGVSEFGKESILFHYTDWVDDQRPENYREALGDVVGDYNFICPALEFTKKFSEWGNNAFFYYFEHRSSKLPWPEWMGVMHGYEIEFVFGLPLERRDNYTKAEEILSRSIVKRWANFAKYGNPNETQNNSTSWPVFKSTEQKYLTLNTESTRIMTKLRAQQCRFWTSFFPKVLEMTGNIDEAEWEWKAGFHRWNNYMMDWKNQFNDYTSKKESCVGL

[3] = ORAC assay (peroxyl radical antioxidant activity); settings: benzoquinone 50 µM
Protocol: For the determination of antioxidant capacity by ORAC method, the commercially available OxiSelect™ Oxygen Radical Antioxidant Capacity (ORAC) Activity Assay kit was used (cat. no. STA-345, Cell Biolabs, Inc., San Diego, CA, USA).
The ability of benzoquinones to prevent excessive oxidation caused by ROS was tested using the commercially available OxiSelect™ Oxygen Radical Antioxidant Capacity (ORAC) Activity Assay kit (cat. no. STA-345, Cell Biolabs, Inc., San Diego, CA, USA), following the manufacturer’s protocol with slight adjustments concerning the antioxidant standard final concentrations. Stock solutions of benzoquinones were prepared in DMSO while 5 mM Trolox (used as an antioxidant standard) was provided by the manufacturer as a solution, and their further dilutions were carried out in 50% v/v acetone. Benzoquinones (50 µM) and Trolox (2.5–50 µM) were incubated with 1x Fluorescein Solution in 96-well black microplates at 37 °C for 30 min. After incubation time, Free Radical Initiator Solution was added. The sample reading was performed at 37 °C with an excitation wavelength of 480 nm and an emission wavelength of 520 nm. […] Net AUC values were compared to a Trolox standard curve and antioxidant capacity was presented as Trolox equivalent (TE) concentrations. All readouts were recorded on a plate reader (SpectraMax iD3, Molecular Devices, LLC, San Jose, CA, USA). Calculations were performed using the statistical package GraphPadPrism 8 (Graph Pad Inc, San Diego, CA, USA).
The ORAC assay was used to evaluate the ability of 1,4-benzoquinone derivatives to prevent oxidative damage caused by generation of ROS. In this assay, the quenching of the fluorescent probe (fluorescein) over time by the peroxyl radicals generated by the Free Radical Initiator Solution was monitored. Since the antioxidant capacity of benzoquinones correlates with the fluorescence decay, the peroxyl radical antioxidant activity of the selected compounds was determined by comparing the antioxidant standard curve of Trolox and was expressed as TE (Trolox equivalents)/µM [58].

recombinant human AChE = target: T3, recombinant human AChE (Homo sapiens, UniProt P22303); test: Inhibition of AChE (modified Ellman method, Hunter–Downs evaluation); assay type: biochemical; settings: for AChE type of inhibition (in words): according to Hunter–Downs plot; for times less potent as inhibitor of AChE than donepezil: compared to donepezil Ki of ref 50; for times less potent as inhibitor of AChE than galantamine: compared to galantamine Ki of ref 50; for fold higher AChE inhibition potency than meta position counterpart: para compounds 5 and 3 vs meta compounds 4 and 2; as to AChE Ki: ATCh 0.05–0.50 mM
T3 construct: gift of Dr Florian Nachon (IRBA, Brétigny-sur-Orge, France)
T3 sequence (P22303 32-614): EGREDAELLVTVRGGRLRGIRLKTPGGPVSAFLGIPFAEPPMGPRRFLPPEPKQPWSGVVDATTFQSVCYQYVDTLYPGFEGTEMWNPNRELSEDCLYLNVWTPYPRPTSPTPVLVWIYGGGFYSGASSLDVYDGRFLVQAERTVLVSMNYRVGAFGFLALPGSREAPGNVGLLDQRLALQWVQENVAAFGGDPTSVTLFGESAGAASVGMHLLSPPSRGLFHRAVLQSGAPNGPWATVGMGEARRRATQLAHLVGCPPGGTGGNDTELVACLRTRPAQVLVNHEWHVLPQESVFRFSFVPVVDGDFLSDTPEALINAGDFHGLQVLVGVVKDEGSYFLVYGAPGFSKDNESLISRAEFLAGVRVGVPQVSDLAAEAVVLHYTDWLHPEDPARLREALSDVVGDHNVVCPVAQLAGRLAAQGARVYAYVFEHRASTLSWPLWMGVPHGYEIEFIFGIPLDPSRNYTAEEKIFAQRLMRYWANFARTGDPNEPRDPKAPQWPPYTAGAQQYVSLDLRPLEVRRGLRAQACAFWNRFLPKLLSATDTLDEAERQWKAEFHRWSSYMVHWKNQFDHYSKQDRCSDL
Protocol: All measurements of cholinesterase activity were performed in 0.1 M sodium phosphate buffer (pH 7.4). Acetylthiocholine (ATCh), used as a substrate, and thiol reagent 5,5′-dithiobis (2-nitrobenzoic acid) (DTNB) were purchased from Sigma–Aldrich, St. Louis, MO, USA. ATCh was dissolved in water and DTNB in sodium phosphate buffer. Stock solutions of compounds were prepared in DMSO (Gram-mol, Zagreb, Croatia), and all further dilutions were carried out in water. As the source of AChE and BChE, purified native human BChE and recombinant human AChE, both kindly provided by Dr Florian Nachon (Département de Toxicologie, Armed Forces Biomedical Research Institute (IRBA), Brétigny-sur-Orge, France), were used. Both enzymes were diluted in a phosphate buffer containing 0.1% BSA, while further dilutions were in a phosphate buffer with 0.01% BSA.
Enzyme activity measurements were carried out spectrophotometrically using a slightly modified Ellman method, as previously described. […] At least three inhibitor concentrations were used at each substrate concentration in at least three experiments. To calculate the enzyme inhibitor dissociation constants (Ki), the Hunter–Downs equation and the linear regression analysis were used:Ki,app = (vi∙i)/(v0 − vi) = Ki + Ki/KS s where Ki,app stands for the apparent inhibition constant and KS for the enzyme–substrate dissociation constant.
The final content of DMSO in measurements was up to 0.4%, and inhibitory reactions containing more than 0.1% of DMSO were corrected for control reactions containing a corresponding concentration of DMSO. No side interactions of the tested compounds with ATCh or DTNB were detected. Measurements were performed at 25 °C and wavelength λ = 412 nm on a Tecan Infinite M200Pro (Tecan Austria GmbH, Salzburg, Austria), and for all calculations, the statistical package GraphPadPrism 8 (Graph Pad Inc., San Diego, CA, USA) was used.
The selectivity index (SI) was determined using the following ratio: SI = Ki(AChE)/Ki(BChE).

[4] = design: method as in doi:10.2298/JSC220304044D; settings: previous study ref 56; cited from earlier work
[5] = FRAP assay (ferric-reducing antioxidant power); settings: 50 and 100 μM
Excerpt: All chemicals for FRAP antioxidant activity measurements were purchased from Sigma Aldrich (St. Louis, MO, USA), except for FeCl3 and tripyridyltriazine (TPTZ), which were purchased from Kemika, Zagreb, Croatia, and Fluka, Buchs, Switzerland, respectively.
A ferric-reducing antioxidant power (FRAP) assay was used to determine the antioxidant capacity of tested benzoquinones, following a slightly modified protocol by Benzie and Strain [41, 42]. The water-soluble derivative of vitamin E (Trolox) and butylated hydroxytoluene (BHT) were used as standard antioxidants. […] All absorbance readouts were recorded at 593 nm against a blank and corrected for the value of absorbance of corresponding benzoquinone alone. All measurements were performed in three independent experiments. FRAP values were calculated using a standard curve for FeSO4 × 7H2O. All readouts were recorded on a plate reader (SpectraMax iD3, Molecular Devices, LLC, San Jose, CA, USA).

[6] = 400 μM compound (maximum concentration used), 0.1 mM ATCh

Row | Compound | inhibition at 50 µM [1] [%] | Ki ([2]; read-out: BChE Ki) [µM] | SI = Ki(AChE)/Ki(BChE) [2] | ORAC value, TE (Trolox equivalents) [3] | Ki (recombinant human AChE; read-out: AChE Ki) [µM] | further results
1 | CC(C)(C)C1=CC(=O)C(SC2CCCC2)=CC1=O [Compound 5] | 11 ± 2 | 5.2 ± 0.7 | 5.6 | 11.0 ± 0.3 µM | 29 ± 5 | AChE type of inhibition (in words) (recombinant human AChE): competitive; times less potent as inhibitor of AChE than donepezil (recombinant human AChE): ~1166; times less potent as inhibitor of AChE than galantamine (recombinant human AChE): about 54; fold higher AChE inhibition potency than meta position counterpart (recombinant human AChE): approximately 1.7
2 | CC(C)(C)C1=CC(=O)C2=C(SCCS2)C1=O [Compound 11] |  |  |  |  |  | DPPH antioxidant activity relative to ascorbic acid [4]: approximately twice as potent as ascorbic acid
3 | CNC1=CC(=O)C=C(C(C)(C)C)C1=O [Compound 13] |  |  |  |  |  | BChE inhibitory activity [2, 6]: did not show any inhibitory activity; AChE inhibitory activity (recombinant human AChE; [6]): did not show any inhibitory activity
4 | CNC1=CC(=O)C(C(C)(C)C)=CC1=O [Compound 12] |  | 228 ± 56 |  |  |  | AChE inhibition (recombinant human AChE; any of the tested concentrations): did not inhibit AChE
5 | CC(C)(C)C1=CC(=O)C(SCCO)=CC1=O [Compound 3] | 5.7 | 8.8 ± 0.8 | 6.5 | 23.9 ± 1.6 µM | 57 ± 4 | fold higher AChE inhibition potency than meta position counterpart (recombinant human AChE): approximately 1.7
6 | CC(C)(C)C1=CC(=O)C=C(N[C@@H](Cc2ccccc2)C(=O)O)C1=O [Compound 15] | 15 ± 3.8 | 34 ± 2 | 1.7 | 43.2 µM and 43.2 ± 1.6 µM | 59 ± 5 | 
7 | CC(C)(C)C1=CC(=O)C=CC1=O [Compound 1, tert-butyl-1,4-benzoquinone] |  |  | 0.95 | 16.7 ± 0.1 µM |  | FRAP antioxidant activity compared to standard antioxidants Trolox and BHT [5]: approximately three times less potent than BHT; Ki [2]: 55 ± 5 µM; DPPH antioxidant activity relative to ascorbic acid [4]: approximately twice as potent as ascorbic acid; Ki (recombinant human AChE): 52 ± 6 µM
8 | CC(C)(C)C1=CC(=O)C=C(SCCO)C1=O [Compound 2] |  | 33 ± 1 | 2.4 |  | 80 ± 7 | AChE type of inhibition (in words) (recombinant human AChE): mixed
9 | CC(C)(C)C1=CC(=O)C=C(Sc2ccccc2)C1=O [Compound 6] |  | 18 ± 4 | 7.6 |  | 136 ± 13 | DPPH antioxidant activity relative to ascorbic acid [4]: approximately twice as potent as ascorbic acid
10 | COc1ccc(SC2=CC(=O)C=C(C(C)(C)C)C2=O)cc1 [Compound 8] |  | 29 ± 3 | 2.9 | 3.6 ± 0.6 µM | 85 ± 5 | 
11 | CC(C)(C)C1=CC(=O)C=C(Sc2ccc3ccccc3c2)C1=O [Compound 10] | 26.2 | 37 ± 5 | 0.81 | 9.3 ± 0.5 µM | 30 ± 3 | AChE type of inhibition (in words) (recombinant human AChE): mixed-type
12 | CC(C)(C)C1=CC(=O)C=C(SCCc2ccccc2)C1=O [Compound 9] | 27.4 | 25 ± 3 | 0.96 | 5.2 ± 0.0 µM | 24 ± 1 | AChE type of inhibition (in words) (recombinant human AChE): non-competitive; times less potent as inhibitor of AChE than donepezil (recombinant human AChE): ~1166; times less potent as inhibitor of AChE than galantamine (recombinant human AChE): about 54
13 | CC(C)(C)C1=CC(=O)C=C(SC2CCCC2)C1=O [Compound 4] |  | 30 ± 6 | 1.9 |  | 56 ± 8 | 
14 | CC(C)(C)C1=CC(=O)C=C(Sc2ccc(O)cc2)C1=O [Compound 7] | 16.7 ± 2.8 | 23 ± 2 | 1.6 | ≥50 µM | 37 ± 4 | 
15 | CC(C)(C)C1=CC(=O)C(N2CCC[C@H]2C(=O)O)=CC1=O [Compound 14] | 10.1 ± 2 | 36 ± 2 | 0.58 | 19.7 ± 1.6 µM | 21 ± 1 | times less potent as inhibitor of AChE than donepezil (recombinant human AChE): ~1166; times less potent as inhibitor of AChE than galantamine (recombinant human AChE): about 54
